Test results from patent EP0080305A1, “Antiviral 2'-deoxyuridines, their preparation and use” (BEECHAM GROUP PLC, priority 1981, dated 1983).
Structures can show the parent of a compound that is named as a salt. Where two headings read alike, the source gives them in different places.

Assays:
[1] = system: Vero (African Green Monkey Kidney) cells; assay: Minimum concentration killing the Vero cell monolayer, read in the plaque reduction test; type: cell-based; conditions: minimum concentration which killed the cell monolayer; virus-infected Vero cells, 6 days at 37°C
Experimental: (§1) Vero (African Green Monkey Kidney) cells were grown to confluence in 6 well multidishes, each well being 3.5 cm in diameter. The cells were incubated with Herpes simplex type 1 virus (HFEM strain) and overlaid with 0.5 mL of 0.9% agarose (w/v) in maintenance medium containing the test compound at a range of concentrations from 3 µg/mL in half-log dilution steps. The virus infected cultures were then incubated at 37 °C for 6 days before fixing in 4% formaldehyde solution and staining with carbolfuchsin. The dishes were then examined to find what concentration of test compound causing a 50% reduction in the number of virus plaques formed (PDD50 value) and the minimum concentration of test compound which killed the cell monolayer, leaving a clear zone devoid of cells and virus plaques (MTD).

[2] = system: Herpes simplex type 1 virus (HFEM strain); assay: Plaque reduction test in Vero cells infected with Herpes simplex type 1 virus; type: cell-based; conditions: for PDD50: concentration causing a 50% reduction in the number of virus plaques
Experimental: as §1

[3] = same PDD50 values given in µM, 6 days at 37°C, read-out: PDD50 (the source's name)

**Q.** With `NC(Cc1ccccc1)C(=O)OC[C@H]1O[C@@H](n2cc(/C=C/Br)c(=O)[nH]c2=O)C[C@@H]1OC(=O)C(N)Cc1ccccc1` (stereo partly drawn) [Example 7, E-5-(2-Bromovinyl)-3',5'-di-O-phenylalanyl-2'-deoxyuridine bis trifluoroacetate] as the compound, how does the MTD [1] read?
**A.** >100 µg/mL

**Q.** What about the PDD50 ([2]; 6 days at 37°C, bis trifluoroacetate) of the same compound?
**A.** 0.14 µg/mL

**Q.** What about the IC50 ([2]; read-out: PDD50, same PDD50 values given in µM, 6 days at 37°C, bis trifluoroacetate) of the same compound?
**A.** 0.16 µM

**Q.** With `CC(C)C[C@H](N)C(=O)OC[C@H]1O[C@@H](n2cc(/C=C/Br)c(=O)[nH]c2=O)C[C@@H]1OC(=O)[C@@H](N)CC(C)C` [Example 18, E-5-(2-bromovinyl)-3',5'-di-L-leucyl-2'-deoxyuridine bis bisulphate salt] as the compound, how does the MTD [1] read?
**A.** >100 µg/mL

**Q.** What about the PDD50 ([2]; 6 days at 37°C) of the same compound?
**A.** 0.28 µg/mL

**Q.** What about the IC50 ([2]; read-out: PDD50, same PDD50 values given in µM, 6 days at 37°C) of the same compound?
**A.** 0.37 µM

**Q.** Which MTD [1] does the source give for “E-5-(2-Bromovinyl)-3',5'-di-L-alanyl-2'-deoxyuridine bis trifluoroacetate [Example 38]” here?
**A.** >100 µg/mL

**Q.** What about the PDD50 ([2]; 6 days at 37°C) of the same compound?
**A.** 0.26 µg/mL

**Q.** And the IC50 [2, 3]?
**A.** 0.37 µM

**Q.** Which MTD [1] does the source give for “E-5-(2-Bromovinyl)-3',5'-di-L-leucyl-2'-deoxyuridine bis trihydrogenpyrophosphate [Example 41]” here?
**A.** >100 µg/mL

**Q.** And the PDD50 ([2]; 6 days at 37°C)?
**A.** 0.55 µg/mL

**Q.** What about the IC50 [2, 3] of the same compound?
**A.** 0.6 µM

**Q.** How did the MTD [1] turn out when “E-5-(2-Bromovinyl)-3',5'-di-glycyl-2'-deoxyuridine bis bisulphate [Example 17]” was run?
**A.** >100 µg/mL

**Q.** What about the PDD50 ([2]; 6 days at 37°C) of the same compound?
**A.** 0.49 µg/mL

**Q.** And the IC50 [2, 3]?
**A.** 0.76 µM

**Q.** For “E-5-(2-Bromovinyl)-5'-O-phenylalanyl-2'-deoxyuridine trifluoroacetate [Example 9]”, which MTD [1] is on record?
**A.** >100 µg/mL

**Q.** What about the PDD50 ([2]; 6 days at 37°C) of the same compound?
**A.** 0.19 µg/mL

**Q.** And the IC50 [2, 3]?
**A.** 0.32 µM

**Q.** How did the MTD [1] turn out when “E-5-(2-bromovinyl)-3',5'-di-L-lysyl-2'-deoxyuridine tetrakis trifluoroacetate dihydrate [Example 40]” was run?
**A.** >100 µg/mL

**Q.** And the PDD50 ([2]; 6 days at 37°C)?
**A.** 0.19 µg/mL

**Q.** What about the IC50 [2, 3] of the same compound?
**A.** 0.18 µM
